Laboratory results as given in the NIST ThermoML archive (doi:10.1016/j.jct.2006.10.008).

Legend:
[1] = xn = mol fraction of the nth substance listed; settings: 298.15 K, 101 kPa, Liquid
[2] = excess molar enthalpy (molar enthalpy of mixing); xn = mol fraction of the nth substance listed; settings: 298.15 K, 101 kPa, Liquid, Calvet calorimetry

CCCCCOC=O [pentyl methanoate] + ClCCCCCCCl
Settings	excess molar enthalpy [kcal/mol]	mass density [kg/m3]
[1], x1 = 0.0731	–	1051.9
[1], x1 = 0.1352	–	1041.69
[1], x1 = 0.1967	–	1031.48
[1], x1 = 0.3212	–	1010.41
[1], x1 = 0.3822	–	999.88
[1], x1 = 0.4398	–	989.79
[1], x1 = 0.558	–	968.7
[1], x1 = 0.6153	–	958.24
[1], x1 = 0.6723	–	947.69
[1], x1 = 0.7282	–	937.22
[1], x1 = 0.7836	–	926.72
[1], x1 = 0.839	–	916.1
[1], x1 = 0.893	–	905.58
[1], x1 = 0.9462	–	895.13
[2], x1 = 0.0697	-0.00265	–
[2], x1 = 0.162	-0.00595	–
[2], x1 = 0.2559	-0.0114	–
[2], x1 = 0.3406	-0.0172	–
[2], x1 = 0.4168	-0.0225	–
[2], x1 = 0.4813	-0.0253	–
[2], x1 = 0.4927	-0.0259	–
[2], x1 = 0.5399	-0.0275	–
[2], x1 = 0.5935	-0.0264	–
[2], x1 = 0.6653	-0.0239	–
[2], x1 = 0.731	-0.0207	–
[2], x1 = 0.8005	-0.0167	–
[2], x1 = 0.8731	-0.0112	–
[2], x1 = 0.9459	-0.00559	–

CCCCCOC=O [pentyl methanoate] + ClCCCCCCl
Settings	excess molar enthalpy [kcal/mol]	mass density [kg/m3]
[1], x1 = 0.0607	–	1082.26
[1], x1 = 0.1185	–	1069.95
[1], x1 = 0.1761	–	1057.7
[1], x1 = 0.2336	–	1045.52
[1], x1 = 0.2924	–	1033.04
[1], x1 = 0.3501	–	1020.86
[1], x1 = 0.4661	–	996.38
[1], x1 = 0.5254	–	983.92
[1], x1 = 0.6434	–	959.15
[1], x1 = 0.7028	–	946.7
[1], x1 = 0.7612	–	934.48
[1], x1 = 0.8194	–	922.34
[1], x1 = 0.8788	–	909.95
[1], x1 = 0.9368	–	897.88
[2], x1 = 0.0613	-0.00304	–
[2], x1 = 0.141	-0.00758	–
[2], x1 = 0.2146	-0.0133	–
[2], x1 = 0.2884	-0.0206	–
[2], x1 = 0.3563	-0.0273	–
[2], x1 = 0.4177	-0.0314	–
[2], x1 = 0.4725	-0.0349	–
[2], x1 = 0.5239	-0.0355	–
[2], x1 = 0.5551	-0.0363	–
[2], x1 = 0.6165	-0.0347	–
[2], x1 = 0.6887	-0.0321	–
[2], x1 = 0.7706	-0.0272	–
[2], x1 = 0.8586	-0.0187	–
[2], x1 = 0.9347	-0.00997	–

CCCCCOC=O [pentyl methanoate] + ClCCCCCl
Settings	excess molar enthalpy [kcal/mol]	mass density [kg/m3]
[1], x1 = 0.0535	–	1118.26
[1], x1 = 0.1055	–	1103.42
[1], x1 = 0.1566	–	1089.12
[1], x1 = 0.2106	–	1074.27
[1], x1 = 0.2635	–	1060
[1], x1 = 0.3199	–	1045.06
[1], x1 = 0.3768	–	1030.28
[1], x1 = 0.4344	–	1015.59
[1], x1 = 0.4908	–	1001.46
[1], x1 = 0.5505	–	986.81
[1], x1 = 0.6109	–	972.26
[1], x1 = 0.6726	–	957.67
[1], x1 = 0.7351	–	943.19
[1], x1 = 0.7986	–	928.74
[1], x1 = 0.8646	–	914.02
[1], x1 = 0.9292	–	899.89
[2], x1 = 0.0558	-0.00368	–
[2], x1 = 0.1297	-0.0102	–
[2], x1 = 0.2099	-0.0181	–
[2], x1 = 0.2822	-0.0275	–
[2], x1 = 0.3497	-0.0373	–
[2], x1 = 0.4176	-0.0442	–
[2], x1 = 0.4615	-0.0492	–
[2], x1 = 0.4847	-0.0503	–
[2], x1 = 0.5352	-0.0522	–
[2], x1 = 0.5989	-0.0512	–
[2], x1 = 0.6703	-0.0498	–
[2], x1 = 0.7496	-0.0436	–
[2], x1 = 0.8354	-0.0321	–
[2], x1 = 0.9293	-0.0167	–

CCCCCOC=O [pentyl methanoate] + ClCCCCl
Settings	excess molar enthalpy, [2] [kcal/mol]	mass density, [1] [kg/m3]
x1 = 0.0471	–	1159.68
x1 = 0.0477	-0.00664	–
x1 = 0.0911	–	1142.71
x1 = 0.1093	-0.0151	–
x1 = 0.1377	–	1125.33
x1 = 0.1729	-0.0245	–
x1 = 0.1848	–	1108.29
x1 = 0.2341	–	1091.1
x1 = 0.2358	-0.0341	–
x1 = 0.2905	-0.0437	–
x1 = 0.3403	–	1056.06
x1 = 0.3427	-0.0529	–
x1 = 0.3933	-0.0605	–
x1 = 0.4528	–	1021.65
x1 = 0.4564	-0.0661	–
x1 = 0.5122	-0.0678	1004.48
x1 = 0.5719	-0.0682	–
x1 = 0.5737	–	987.37
x1 = 0.6379	–	970.23
x1 = 0.6452	-0.0655	–
x1 = 0.7034	–	953.41
x1 = 0.7254	-0.0585	–
x1 = 0.7721	–	936.49
x1 = 0.8109	-0.045	–
x1 = 0.8438	–	919.53
x1 = 0.9161	-0.0244	–
x1 = 0.9188	–	902.44

CCCCCOC=O [pentyl methanoate] + ClCCCl
Settings	excess molar enthalpy [kcal/mol]	mass density [kg/m3]
[1], x1 = 0.0396	–	1221.77
[1], x1 = 0.0779	–	1199.93
[1], x1 = 0.1181	–	1178.31
[1], x1 = 0.1601	–	1156.97
[1], x1 = 0.2047	–	1135.53
[1], x1 = 0.2505	–	1114.67
[1], x1 = 0.3008	–	1093.1
[1], x1 = 0.3529	–	1072.02
[1], x1 = 0.4074	–	1051.23
[1], x1 = 0.4655	–	1030.4
[1], x1 = 0.5288	–	1009.11
[1], x1 = 0.5948	–	988.32
[1], x1 = 0.6639	–	967.94
[1], x1 = 0.7399	–	946.95
[1], x1 = 0.8201	–	926.19
[1], x1 = 0.906	–	905.54
[2], x1 = 0.0406	-0.0082	–
[2], x1 = 0.0934	-0.0198	–
[2], x1 = 0.1501	-0.0337	–
[2], x1 = 0.2054	-0.0459	–
[2], x1 = 0.2613	-0.0583	–
[2], x1 = 0.3157	-0.0674	–
[2], x1 = 0.3653	-0.0765	–
[2], x1 = 0.4153	-0.08382	–
[2], x1 = 0.4604	-0.08886	–
[2], x1 = 0.5014	-0.09156	–
[2], x1 = 0.5593	-0.0925	–
[2], x1 = 0.6338	-0.08788	–
[2], x1 = 0.7235	-0.075	–
[2], x1 = 0.8158	-0.055	–
[2], x1 = 0.9141	-0.0302	–
